Read-outs that look alike come from different tables or passages of the source.
Columns and labels:
[1] = amine drug, cited from earlier work
[2] = Solubility test of paliperidone with ionizable compound (citric acid) and amphiphilic compound (SoluPlus); assay type: physicochemical; details: for solubility: room temperature
Experimental: A solubility test was performed to quantify the synergistic effects provided by the combination of an ionizable polymer and an amphiphilic compound. In this Example the ionizable compound was citric acid and the amphiphilic compound was SoluPlus®.

SMILES | pKa ([1]; first pKa value) | pKa ([1]; second pKa value) | solubility higher in solution containing ionizable compound and amphiphilic polymer compared to ionizable compound without amphiphilic polymer ([2]; 10% Soluplus + 10% citric acid vs 10% citric acid alone) [%] | solubility ([2]; aqueous buffer, in 10% Citric Acid Aqueous Solution) [mg/mL] | solubility ([2]; aqueous with cosolvent or surfactant or cyclodextrin, in 10% Soluplus Aqueous Solution) [mg/mL] | solubility ([2]; aqueous with cosolvent or surfactant or cyclodextrin, in 10% Soluplus and 10% Citric Acid Aqueous Solution) [mg/mL]
Cc1cc2c(s1)Nc1ccccc1N=C2N1CCN(C)CC1 [Olanzapine] | 5 | 7.4 | – | – | – | –
Cc1nc2n(c(=O)c1CCN1CCC(c3noc4cc(F)ccc34)CC1)CCCC2O (stereo not drawn) [Paliperidone] | 8.2 | 8.6 | 34.3 | 241 | 0.6 | 324
CCOc1ccccc1OCCN[C@H](C)Cc1ccc(OC)c(S(N)(=O)=O)c1 [Tamsulosin] | – | 10.23 | – | – | – | –

From patent US9011912B2, “Extended-release oral dosage forms for poorly soluble amine drugs” (Abon Pharmaceuticals, LLC, priority 2010, dated 2015)
